Experimental data: patent publication US5110927A (The United States of America as represented by the …, priority 1987, dated 1992)
Entries after “also recorded” stand apart in the source; their conditions may differ. Like-named read-outs stand apart in the source and are kept apart here. Each block holds one molecule with its values, some of them ahead of it.

Assays:
[1] = system: hypertensive patients; normotensive and hypertensive animals; details: human, in vivo; cited from earlier work
[2] = system: BHT 933, alpha2-adrenergic pressor response; test: diastolic blood pressure response to BHT 933 in anesthetized rats; type: in vivo, rat; details: i.v., prazosin 0.11 mg/kg or compound 47 0.09 mg/kg, 15 min
Protocol: (§1) Male rats were anesthetized, cannulated, and treated with hexamethonium bromide to block ganglionic effect, and their basal response in blood pressure to pressor compounds was measured. […] After fifteen minutes, the response in blood pressure to pressor compounds was re-evaluated.

[3] = target: α1-adrenoceptor (3H-prazosin binding sites); test: displacement of 3H-prazosin from rat cerebral cortical (brain) membranes; details: for -logIC50: 3H-prazosin displacement, rat cerebral cortical membranes
Protocol: IC50 values and apparent Ki values were determined as in Table 1.
(§2) Rat brain cortices were homogenized in approximately 30 volumes/wet weight of 50 mM Tris buffer, pH 7.4, containing 10 mM MgCl2 by use of a Polytron (setting 6 for 10 seconds). It should be noted that this buffer was used throughout the experimental procedures. The homogenate was centrifuged at 48,000×g for 10 minutes in a Sorvall RC-5B centrifuge. The resulting pellet was resuspended in buffer by use of a Polytron and recentrifuged. This process was repeated and the pellet was resuspended in approximately 200 volumes for affinity studies or 20 volumes for irreversibility experiments.
Specific binding was defined as the difference between total binding (measured in the absence of any ligand) and non-specific binding (measured in the presence of 10 microM phentolamine). Duplicate tubes were used for each condition. Reaction tubes were incubated for 30 minutes at 30° C., then diluted to 5 ml with ice cold buffer, and filtered under reduced pressure through Whatman GF/C glass fiber filters. The reaction tubes and filters were washed three additional times with buffer.

[4] = system: α1-adrenoceptor (3H-prazosin binding sites); test: irreversibility experiment: membranes preincubated with compound, washed, assayed for saturation of 3H-prazosin binding; parameters: species or system rat; details: for irreversible blockade / effect on 3H-prazosin binding sites (in words): membranes, preincubation and washing
[5] = system: alpha1-adrenoceptors and other receptors; details: prior art; cited from earlier work
[6] = system: phenylephrine, alpha1-adrenergic pressor response; test: diastolic blood pressure response to phenylephrine in anesthetized rats; type: in vivo, rat; details: i.v., prazosin 0.11 mg/kg or compound 47 0.09 mg/kg, 15 min
Protocol: as §1

[7] = system: α1-adrenoceptor (3H-prazosin binding sites); test: intact animal study: intraperitoneal injection, membranes prepared 16 hours later and assayed for saturation of 3H-prazosin binding; type: in vivo, rat
Protocol: Sixteen hours later, the animals were sacrificed, membranes were prepared from various tissues, and assayed for saturation of ^3 -prazosin binding.
To test its efficacy in vivo. compound No. 47 was injected intraperitoneally at a dose of 10 mg/kg into rats. In membranes prepared from brains and hearts of animals 16 hours after injection of compound 47, a 32-44% decrease in Bmax was noted, compared to animals injected with vehicle only. […]

[8] = system: cholinergic (muscarinic) activated efflux of calcium ions, rat parotid cells; test: calcium efflux activated by cholinergic (muscarinic) system in dispersed parotid cells; type: cell-based
[9] = system: beta-adrenoceptors (3H-DHA binding sites); test: irreversibility experiment: preincubation and washing of brain membranes, then 3H-DHA binding; parameters: species or system rat; details: preincubated and washed
Protocol: (§3) FIG. 5 - In vitro blockage of adrenergic binding sites in rat brain membranes by compound No. b 47 Membranes were preincubated without 0---0, or with 0---0 1×10^-7 M of compound No. 47 and processed as described in the Methods. Membranes were assayed for ^3 -prazosin binding and either ^3 -DHA or ^3 -yohimbine binding. The data are the averages of two separate experiments.
(§4) Aliquots of a suspension of membranes (5 ml), prepared as described above, were incubated with either the addition of only buffer (control) or a solution of the tested compound at various concentrations ranging from 1×10^-10 to 1×10^-5 for about 60 minutes at about 30° C. The suspensions were then diluted to approximately 40 mL with buffer, and incubated a further 10 minutes on ice. The membranes were then washed by a series of four centrifugations and resuspensions before they were finally resuspended in approximately 50 mL buffer for assay of saturation of ^3 -prazosin binding.

[10] = target: T1, α1-adrenoceptor (3H-prazosin binding sites) (Rattus norvegicus, UniProt P15823); test: irreversibility experiment: membranes preincubated with compound, washed, assayed for saturation of 3H-prazosin binding; details: spleen membranes, FIG. 3; statistically insignificant
T1 construct: Rat brain cortices were homogenized; from tissue; host or cells: rat brain cortex membranes; for some results heart ventricle, kidney cortex and spleen membranes
T1 sequence (P15823 1-515): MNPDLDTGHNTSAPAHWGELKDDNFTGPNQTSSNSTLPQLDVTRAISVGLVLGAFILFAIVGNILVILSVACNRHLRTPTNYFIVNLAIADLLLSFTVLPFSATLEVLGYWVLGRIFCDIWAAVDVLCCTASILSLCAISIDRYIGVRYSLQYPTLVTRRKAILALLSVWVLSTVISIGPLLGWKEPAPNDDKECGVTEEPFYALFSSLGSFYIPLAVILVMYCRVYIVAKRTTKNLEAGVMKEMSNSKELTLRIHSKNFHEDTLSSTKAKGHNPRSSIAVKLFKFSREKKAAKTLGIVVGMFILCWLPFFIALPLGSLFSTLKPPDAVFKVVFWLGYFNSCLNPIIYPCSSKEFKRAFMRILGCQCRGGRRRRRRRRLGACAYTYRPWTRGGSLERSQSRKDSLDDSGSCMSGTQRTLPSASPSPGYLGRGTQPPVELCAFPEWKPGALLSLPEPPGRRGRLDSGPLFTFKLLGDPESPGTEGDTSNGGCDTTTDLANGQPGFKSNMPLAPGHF

[11] = system: catecholamine-activated efflux of calcium ions, rat parotid cells; test: calcium efflux activated by catecholamines in dispersed parotid cells; type: cell-based
[12] = target: T2, beta-adrenoceptors (3H-DHA binding sites) (Rattus norvegicus, UniProt P18090); test: displacement of 3H-DHA from rat brain membranes
T2 construct: Membranes from rat brain cortex were prepared; from tissue; host or cells: rat brain cortex membranes
T2 sequence (P18090 whole entry): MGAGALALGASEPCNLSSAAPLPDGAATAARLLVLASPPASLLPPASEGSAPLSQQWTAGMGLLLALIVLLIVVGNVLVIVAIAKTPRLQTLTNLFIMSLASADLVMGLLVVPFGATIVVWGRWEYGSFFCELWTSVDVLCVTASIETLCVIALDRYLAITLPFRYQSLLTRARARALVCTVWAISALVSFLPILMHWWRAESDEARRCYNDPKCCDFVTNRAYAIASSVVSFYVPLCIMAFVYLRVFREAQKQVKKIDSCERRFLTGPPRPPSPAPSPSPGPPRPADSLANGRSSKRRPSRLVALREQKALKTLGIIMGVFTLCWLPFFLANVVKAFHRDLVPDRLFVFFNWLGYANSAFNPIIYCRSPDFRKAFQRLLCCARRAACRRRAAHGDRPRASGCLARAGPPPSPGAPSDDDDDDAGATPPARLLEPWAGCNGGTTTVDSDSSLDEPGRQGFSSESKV
Protocol: (§5) FIG. 1 - Affinity of compound No. 47 at adrenergic binding sites on brain membranes. Membranes from rat brain cortex were prepared and the displacement of either ^3 H-prazosin 0---0, ^3 H-yohimbine Δ---Δ or ^3 H-DHA --- by compound No. 47 was measured. IC50 values and apparent Ki values were determined as in Table 1. The data in the figure are from a representative experiment which was repeated. […] The results are the averages of two separate experiments.
as §2

[13] = system: norepinephrine-induced contraction of aorta rings; test: contraction of rabbit aorta rings caused by norepinephrine; details: 10^-6 M, thirty minutes exposure
Protocol: Rings from aortas of rabbits were prepared using standard procedures, the rings were characterized, and the effects of compound 47 on contraction caused by norepinephrine were characterized.

[14] = target: alpha2-adrenoreceptors (3H-yohimbine binding sites); test: displacement of 3H-yohimbine from rat brain membranes
Protocol: as §5, §2

[15] = system: alpha2-adrenoceptors (3H-yohimbine binding sites); test: irreversibility experiment: preincubation and washing of brain membranes, then 3H-yohimbine binding; parameters: species or system rat; details: preincubated and washed
Protocol: as §3, §4

-logIC50 [3]: 9.79
SMILES: COc1cc2nc(N3CCN(C(=O)c4ccco4)CC3)nc(N)c2cc1OC [Compound 1, 2-(4-(2-furoyl)-piperazine-1-yl)-4-amino-6,7-dimethoxy-quinazoline, reference compound]
lowering of blood pressure [1]: lower blood pressure in hypertensive patients and in normotensive and hypertensive animals | effect on blood pressure response to BHT 933 [2]: a higher concentration of pressor compounds was required to obtain increases in blood pressure | irreversible blockade / effect on 3H-prazosin binding sites (in words) ([4]; listed as Prazosin): prevented the decrease in binding sites caused by compound 47 alone; also recorded: had no effect on ^3 -prazosin binding | irreversible blockade / effect on 3H-prazosin binding sites (in words) ([4]; listed as prazosin): Washing the prazosin from the membranes restored the number of alpha1 -adrenoceptors | receptor specificity (in words) [5]: preferential affinity for postysynaptic alpha1 -adrenoreceptors | effect on blood pressure response to phenylephrine [6]: a higher concentration of pressor compounds was required to obtain increases in blood pressure

Kd ([7]; 10 mg/kg i.p., brain, control 0.317 ± 0.071, read-out: Kd, experimental, brain): 0.292 ± 0.045 nM | Kd ([7]; 10 mg/kg i.p., heart, control 0.150 ± 0.019, read-out: Kd, experimental, heart): 0.255 ± 0.072 nM | -logIC50 [3]: 7.99 | Ki ([3]; FIG. 1, rat brain cortex membranes, read-out: Apparent Ki at 3H-prazosin binding sites): 3.44 nM | effect of preincubation on 3H-DHA binding (beta) [9]: unaffected | effect of preincubation on 3H-DHA binding (beta) ([9]; listed as alkylated prazosin): did not introduce permanent change | preincubation time to maximum blockade ([4]; FIG. 6, 1×10^-8 M, preincubation 15 min to 3 hr): about 45 minutes | blockage of 3H-prazosin binding ([4]; brain membranes, 1 micromole of compound 47 in preincubation): approximately 50% | maximum blockade of 3H-prazosin binding sites ([4]; brain membranes, altered protocols): no more than 50% | reduction of 3H-prazosin binding ([4]; brain membranes, preincubated with 10 nM, washed): 50% | maximum blockade after double preincubation ([4]; brain membranes, two preincubations with 10 nM, FIG. 7): ≤ 50% | blockade of binding sites, heart membranes ([4]; heart membranes, preincubated, FIG. 3): 40-50% | blockade of binding sites, kidney membranes ([4]; kidney membranes, preincubated, FIG. 3): 40-50% | decrease in binding sites, spleen membranes [10]: 18% | Ki ([12]; FIG. 1, rat brain cortex membranes, read-out: Apparent Ki at 3H-DHA binding sites): 5910 nM | displacement of 3H-DHA (in words) ([12]; brain membranes): much weaker competitor | Ki ([14]; FIG. 1, rat brain cortex membranes, read-out: Apparent Ki at 3H-yohimbine binding sites): 884 nM | affinity at 3H-yohimbine binding sites relative to 3H-prazosin binding sites ([14]; brain membranes): over a hundred times lower | displacement of 3H-yohimbine (in words) ([14]; brain membranes): much weaker competitor | effect of preincubation on 3H-yohimbine binding (alpha2) ([15]; listed as alkylated prazosin): did not introduce permanent change
SMILES: COc1cc2nc(N3CCN(C(=O)C4=CC5C=CC4CC5)CC3)nc(N)c2cc1OC (stereo not drawn) [Compound 47, 4-amino-2(4-bicyclo[2.2.2]octa-2,5-diene-2-carboxypiperazin-1-yl)-6,7-dimethoxyquinazoline]
% Reduction in Bmax, brain ([7]; 10 mg/kg i.p., brain): 36% | % Reduction in Bmax, heart ([7]; 10 mg/kg i.p., heart): 43% | % Reduction in Bmax, kidney ([7]; 10 mg/kg i.p., kidney): 21% | decrease in Bmax, brains and hearts ([7]; 10 mg/kg i.p., vs vehicle): 32-44% | Kd of remaining receptors after i.p. injection (in words) ([7]; i.p.): a significant increase in the Kd of the remaining receptors was seen | effect on muscarinic-activated calcium efflux [8]: did not interfere in the efflux of calcium ions | affinity to alpha1-adrenoceptors (in words) ([3]; discussion of Table 1): excellent affinity; also recorded: apparent nanomolar potency | Kd (KD) of remaining 3H-prazosin binding sites (in words) ([4]; after preincubation and washing): without a change in the affinity (KD) of the remaining sites; also recorded: Higher concentrations in the preincubation mixture increased the Kd of the remaining sites; also recorded: only decreased the concentration of ligand by 10- and 100-fold, respectively, at which the large Kd effects were noted; also recorded: the Kd of the remaining receptors increased when lower concentrations of added ligand were used in the diluted preincubation mixtures | irreversible blockade / effect on 3H-prazosin binding sites (in words) [4]: irreversible; also recorded: decreased the number of alpha1 -adrenoceptors permanently | irreversible blockade / effect on 3H-prazosin binding sites (in words) ([4]; listed as alkylated prazosin): Only approximately one half of the alpha1 -adrenoceptors could be eliminated in a clean manner | blockade of 3H-prazosin binding sites under altered protocols (in words) ([4]; preincubation time, ligand/receptor ratio, buffer, (-)epinephrine, double preincubation): remained at this level even after three hours of preincubation; also recorded: No difference in blockade; also recorded: Increasing the preincubation time up to three hours did not increase the amount of blockade; also recorded: did not change the outcome of the results; also recorded: did not affect the amount of blockade; also recorded: did not lead to further blockade | inhibition of catecholamine-activated calcium efflux [11]: potently inhibited the efflux of calcium ions | persistence of effect on norepinephrine contraction of aorta rings [13]: could not be cancelled by 21 hours of washing at 4 °C | effect on blood pressure response to phenylephrine [6]: counteracted only to phenylephrine | effect of preincubation on 3H-yohimbine binding (alpha2) [15]: did not irreversibly block ^3 -yohimbine binding sites; also recorded: unaffected
